Columns and labels:
[1] = Fluorescence enhancement (FE) ratio upon reaction with excess MPA; format: physicochemical; settings: for FE (fluorescence enhancement ratio): HEPES (pH 7.4)/DMSO 5%, final divided by initial fluorescence intensity
Experimental: (§1) Spectroscopic characterization of fluorogen 5 included absorbance and fluorescence emission maxima as well as the fluorescence enhancement (FE) ratio. The spectroscopic characteristics were evaluated in two solvent systems (DMSO and HEPES (pH 7.4)/5% DMSO). The FE ratio determination was carried out by reacting 5 with excess mercaptopropionic acid (MPA) and then dividing the final fluorescence by the initial fluorescence intensity, at a specific fluorogen concentration.
Determination of Fluorescence Enhancement Ratios
(§2) Absorbance spectra were recorded at 25° C., with a Cary-100 spectrometer. Emission spectra and fluorescence intensity measurements were recorded at 25° C. with a Cary Eclipse fluorometer. Excitation and emission slits were fixed at 5 nm
3-Mercaptopropionic acid (50 eq) was added to a 1 to 4 mM DMSO solution of fluorogen. The resulting mixture was stirred at 25° C., in the dark for 18 hours after which fluorescence intensities of a dilution in HEPES buffer (pH 7.4) were recorded. Final fluorescence intensity was then divided by the initial florescence intensity at the same fluorogen concentration leading to the fluorescence enhancement ratio for the fluorogen.

[2] = Photophysical properties (absorbance/excitation and fluorescence emission maxima, fluorescence intensity); format: physicochemical; settings: for initial fluorescence intensity: before reaction with MPA
Experimental: as §1, §2

initial fluorescence intensity ([2]; aqueous media (HEPES/5% DMSO)) | λem MPA adduct ([2]; di-MPA adduct in DMSO) [nm] | λex MPA adduct ([2]; di-MPA adduct in DMSO) [nm] | λem MPA adduct ([2]; di-MPA adduct in HEPES/DMSO 5%) [nm] | λex MPA adduct ([2]; di-MPA adduct in HEPES/DMSO 5%) [nm] | λem ([2]; fluorogen in DMSO) [nm] | λex ([2]; fluorogen in DMSO) [nm] | λem ([2]; fluorogen in HEPES/DMSO 5%) [nm] | λex ([2]; fluorogen in HEPES/DMSO 5%) [nm] | initial fluorescence intensity ([2]; pure DMSO) | melting point [°C] | Compound | fluorescence intensity increase upon reaction with MPA ([1]; pure DMSO) | FE (fluorescence enhancement ratio) [1]
at the level of the background noise | 540 | 350 | 520 | 325 | 540 | 345 | 520 | 325 | approximately 2 | 230 | CC1=CC(=O)N(c2cc(NS(=O)(=O)c3cccc4c(N(C)C)cccc34)cc(N3C(=O)C=C(C)C3=O)c2)C1=O [Fluorogen 5, N-Dansyl-3,5-di-(3-methylmaleimido)aniline] | over 300 fold | –
– | – | – | 404 | 347 | – | – | 404 | 347 | – | – | COc1ccc2cc(C(=O)NCc3cc(N4C(=O)C=C(C)C4=O)cc(N4C(=O)C=C(C)C4=O)c3)c(=O)oc2c1 [Fluorogen 11, 7-Methoxy-3-(3,5-di-(3-methylmaleimido)benzyl)aminocarbonyl coumarin] | – | 6.4
– | – | – | – | – | – | – | – | – | – | – | 8-(2′,6′-di-((4″-(3-methylmaleimido)phenyl)ethynyl))-4,4-difluoro-4-bora-3a,4a-diaza-s-indacene [Fluorogen 17] | – | 6.4

Compound | initial fluorescence intensity ([2]; aqueous media (HEPES/5% DMSO)) | λem MPA adduct ([2]; di-MPA adduct in DMSO) [nm] | λex MPA adduct ([2]; di-MPA adduct in DMSO) [nm] | λem MPA adduct ([2]; di-MPA adduct in HEPES/DMSO 5%) [nm] | λex MPA adduct ([2]; di-MPA adduct in HEPES/DMSO 5%) [nm] | λem ([2]; fluorogen in DMSO) [nm] | λex ([2]; fluorogen in DMSO) [nm] | λem ([2]; fluorogen in HEPES/DMSO 5%) [nm] | λex ([2]; fluorogen in HEPES/DMSO 5%) [nm] | initial fluorescence intensity ([2]; pure DMSO) | melting point [°C] | fluorescence intensity increase upon reaction with MPA ([1]; pure DMSO) | FE (fluorescence enhancement ratio) [1]
8-(3′,5′-di-(3-methylmaleimido)-phenyl-4,4-difluoro-4-bora-3a,4a-diaza-s-indacene [Fluorogen 13] | – | – | – | 514 | 510 | – | – | 514 | 510 | – | – | – | 3.5

Source: patent publication US9006459B2, “Fluorescent markers and use thereof for labeling specific protein targets” (University of Ottawa, priority 2010, dated 2015)
